The values that follow come from patent publication US8785468B2, “Phenylalanine amide derivatives useful for treating insulin-related diseases and conditions” (Amgen Inc., priority 2009, dated 2014).

The structures appear in SMILES notation. Where a name gives a salt, the structure may show the parent alone.

The EC50 is the concentration giving half of the maximal effect.

The assay concerns the target T1, human receptor found in pancreatic islet cells (Homo sapiens, UniProt Q7Z601).
T1 sequence (Q7Z601 1-462): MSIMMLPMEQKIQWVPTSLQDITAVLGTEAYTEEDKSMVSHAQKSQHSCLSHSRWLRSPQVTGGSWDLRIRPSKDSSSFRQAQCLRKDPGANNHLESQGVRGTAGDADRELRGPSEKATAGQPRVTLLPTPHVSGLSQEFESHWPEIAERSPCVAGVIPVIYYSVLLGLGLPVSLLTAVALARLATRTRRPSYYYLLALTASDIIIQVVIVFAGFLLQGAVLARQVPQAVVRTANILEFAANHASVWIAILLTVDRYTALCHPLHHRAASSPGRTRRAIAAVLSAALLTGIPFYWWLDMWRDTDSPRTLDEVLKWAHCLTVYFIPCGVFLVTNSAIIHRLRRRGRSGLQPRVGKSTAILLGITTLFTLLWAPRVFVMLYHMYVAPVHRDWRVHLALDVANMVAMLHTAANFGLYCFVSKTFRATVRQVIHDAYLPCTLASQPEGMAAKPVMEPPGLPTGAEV
The experiment in a line: Activation of intracellular IP3 signaling in transfected cells (Activation Assay). The assay is classed as cell-based. As to conditions: calculated from IP3 concentration measurements in cells transfected with the human receptor. As to the method: Table 12 provides exemplary compounds that were prepared and assessed, following protocols known to those of skilled in the art, for activation of intracellular inositol trisphosphate (IP3) signaling pathways that lead to elevation of intracellular calcium concentration. EC50 values provided in Table 12 were calculated from IP3 concentration measurements in cells transfected with a human receptor found in pancreatic islet cells, inter alia.
Consider `Cc1cc(-c2cc(NC(=O)[C@@H](N)Cc3ccc(F)cc3)n(C)n2)ccn1` [Example 16.1.F, (2S)-2-amino-3-(4-fluorophenyl)-N-(1-methyl-3-(2-methylpyridin-4-yl)-1H-pyrazol-5-yl)propanamide], for which the EC50 was 100 to 1000 nM.

On to `Cc1ncc(CN[C@@H](Cc2ccccc2)C(=O)Nc2cccc(-c3ccncc3)c2)s1` [Example 34.18, (S)-2-((2-Methylthiazol-5-yl)methylamino)-3-phenyl-N-(3-(pyridin-4-yl)phenyl)propanamide], for which the EC50 is 100 to 1000 nM.

Regarding `COc1cc(NC(=O)[C@H](Cc2ccccc2)NCc2cscn2)cc(-c2ccnc(C)c2)n1` [Example 41.6, (2S)—N-(2-Methoxy-6-(2-methylpyridin-4-yl)pyridin-4-yl)-3-phenyl-2-(thiazol-4-ylmethylamino)propanamide], the concentration for a half-maximal effect (EC50) was 100 to 1000 nM.

Regarding `CN(C)C(=O)c1cc(NC(=O)[C@H](Cc2ccccc2)NCc2cscn2)cc(-c2ccncc2)c1` [Example 55, (S)—N,N-Dimethyl-3-(3-phenyl-2-(thiazol-4-ylmethylamino)propanamido)-5-(pyridin-4-yl)benzamide], the 50% effective concentration (EC50) is 100 to 1000 nM.

In the case of `N[C@@H](Cc1ccccc1)C(=O)Nc1cc(-c2ccncc2)c[nH]c1=O` [Example 25.2, (S)-2-amino-N-(2-oxo-5-(pyridin-4-yl)-1,2-dihydropyridin-3-yl)-3-phenylpropanamide diTFA], the concentration for a half-maximal effect (EC50) was 1000 to 10000 nM.

As for `Cc1cc(-c2cnc(OCC(=O)OC(C)(C)C)c(NC(=O)[C@H](Cc3ccccc3)NCc3cscn3)c2)ccn1` [Example 78, tert-Butyl 2-(5-(2-methylpyridin-4-yl)-3-((S)-3-phenyl-2-(thiazol-4-ylmethylamino)propanamido)pyridin-2-yloxy)acetate], the concentration giving a half-maximal response (EC50) was < 50 nM.

Turning to `O=C(NCC1CC1)c1cc(NC(=O)[C@H](Cc2ccccc2)NCc2cscn2)cc(-c2ccncc2)c1` [Example 70, (S)—N-(Cyclopropylmethyl)-3-(3-phenyl-2-(thiazol-4-ylmethylamino)propanamido)-5-(pyridin-4-yl)benzamide], the EC50 was 50 to 100 nM.

Consider `O=C([C@H](Cc1ccccc1)NCc1cscn1)N1CCc2c(-c3n[nH]c(=S)o3)cc(-c3ccncc3)cc21` [Example 58, (S)-3-Phenyl-1-(6-(pyridin-4-yl)-4-(5-thioxo-4,5-dihydro-1,3,4-oxadiazol-2-yl)indolin-1-yl)-2-(thiazol-4-ylmethylamino)propan-1-one], for which the 50% effective concentration (EC50) is < 50 nM.

In the case of `CCn1nc(-c2ccnc(NC)c2)cc1NC(=O)[C@H](Cc1ccc(F)cc1)NCc1ccc(F)cn1` [Example 31.3, (2S)—N-(1-Ethyl-3-(2-(methylamino)pyridin-4-yl)-1H-pyrazol-5-yl)-3-(4-fluorophenyl)-2-((5-fluoropyridin-2-yl)methylamino)propanamide], the half-maximal effective concentration (EC50) is < 50 nM.

For the molecule `Nc1cc(-c2cccc(NC(=O)[C@H](Cc3ccccc3)NCc3cscn3)c2)ccn1` [Example 36, (2S)—N-(3-(2-Aminopyridin-4-yl)phenyl)-3-phenyl-2-(thiazol-4-ylmethylamino)propanamide], the EC50 was 100 to 1000 nM.

`CCn1nc(-c2ccnc(NC)c2)cc1NC(=O)[C@H](Cc1ccc(F)cc1)NCC(=O)O` [Example 31.4, 2-((S)-1-(1-Ethyl-3-(2-(methylamino)pyridin-4-yl)-1H-pyrazol-5-ylamino)-3-(4-fluorophenyl)-1-oxopropan-2-ylamino)acetic acid]: the EC50 was < 50 nM.

Consider `O=C([C@H](Cc1ccccc1)NCc1cscn1)N1CCc2ccc(-c3cncnc3)cc21` [Example 84, (S)-3-Phenyl-1-(6-(pyrimidin-5-yl)indolin-1-yl)-2-(thiazol-4-ylmethylamino)propan-1-one], for which the concentration giving a half-maximal response (EC50) is 1000 to 10000 nM.

For the molecule `CCn1nc(-c2ccncc2)cc1NC(=O)[C@H](Cc1ccccc1)N[C@H](C)C(=O)O` [Example 20.3, (R)-2-((S)-1-(1-Ethyl-3-(pyridin-4-yl)-1H-pyrazol-5-ylamino)-1-oxo-3-phenylpropan-2-ylamino)propanoic acid], the half-maximal effective concentration (EC50) is 1000 to 10000 nM.

Consider `NC(=O)c1cc(NC(=O)[C@H](Cc2ccccc2)NCc2cscn2)cc(-c2ccncc2)c1` [Example 47, (S)-3-(3-phenyl-2-(thiazol-4-ylmethylamino)propanamido)-5-(pyridin-4-yl)benzamide], for which the concentration giving a half-maximal response (EC50) was 50 to 100 nM.

Regarding `Cn1nc(-c2ccncc2)cc1NC(=O)[C@H](Cc1ccccc1)NCc1cscn1` [Example 17.2, (S)—N-(1-Methyl-3-(pyridin-4-yl)-1H-pyrazol-5-yl)-3-phenyl-2-(thiazol-4-ylmethylamino)propanamide], the concentration giving a half-maximal response (EC50) is < 50 nM.

Take `C[C@H](N[C@@H](Cc1ccccc1)C(=O)Nc1nnc(-c2ccncc2)s1)c1ccccn1` [Example 1.2, (S)-3-phenyl-2-((S)-1-(pyridin-2-yl)ethylamino)-N-(5-(pyridin-4-yl)-1,3,4-thiadiazol-2-yl)propanamide]: the concentration for a half-maximal effect (EC50) is 100 to 1000 nM.

`COc1ncc(-c2ccnc(C)c2)cc1NC(=O)[C@H](Cc1ccccc1)NC1(c2ccccn2)CC1` [Example 41.1, (2S)—N-(2-Methoxy-5-(2-methylpyridin-4-yl)pyridin-3-yl)-3-phenyl-2-(1-(pyridin-2-yl)cyclopropylamino)propanamide]: the EC50 was 100 to 1000 nM.

For the molecule `Cn1cc(-c2cccc(NC(=O)[C@H](Cc3ccccc3)NCc3cscn3)c2)cn1` [Example 27, (2S)—N-(3-(1-Methyl-1H-pyrazol-4-yl)phenyl)-3-phenyl-2-(thiazol-4-ylmethylamino)propanamide], the EC50 is 100 to 1000 nM.

For the molecule `COC(=O)c1cc(-c2ccncc2)cc2c1CCN2C(=O)[C@H](Cc1ccccc1)NCc1cscn1` [Example 54.8, TFA salt], the EC50 is 100 to 1000 nM.

In the case of `CNc1cc(-c2cc(NC(=O)[C@H](Cc3ccc(F)cc3)NCc3ccn(C)n3)n(C)n2)ccn1` [Example 23.4, (2S)-3-(4-Fluorophenyl)-2-((1-methyl-1H-pyrazol-3-yl)methylamino)-N-(1-methyl-3-(2-(methylamino)pyridin-4-yl)-1H-pyrazol-5-yl)propanamide], the concentration giving a half-maximal response (EC50) is 50 to 100 nM.

For `O=C(Nc1cccc(-c2ccccc2)c1)[C@H](Cc1ccccc1)NCc1cscn1` [Example 48], the EC50 was 100 to 1000 nM.

In the case of `Cc1cc(-c2ccc3c(c2)N(C(=O)[C@H](Cc2ccccc2)NCc2cscn2)CC3)ccn1` [Example 56, (2S)-1-(6-(2-Methylpyridin-4-yl)indolin-1-yl)-3-phenyl-2-(thiazol-4-ylmethylamino)propan-1-one], the half-maximal effective concentration (EC50) is 50 to 100 nM.

With `N[C@@H](Cc1ccccc1)C(=O)Nc1cc(C(=O)O)cc(-c2ccncc2)c1` [Example 45.1, (S)-3-(2-Amino-3-phenylpropanamido)-5-(pyridin-4-yl)benzoic acid], the EC50 is 1000 to 10000 nM.

As to `CNc1cc(-c2nnc(NC(=O)[C@H](Cc3ccc(F)cc3)NCc3cscn3)s2)ccn1` [Example 8.2, (2S)-3-(4-fluorophenyl)-N-(5-(2-(methylamine)pyridine-4-yl)-1,3,4-thiadiazol-2-yl)-2-(thiazol-4-ylmethylamino)propanamide], the EC50 is 50 to 100 nM.

For the molecule `CC(N[C@@H](Cc1ccccc1)C(=O)Nc1cccc(-c2ccncc2)c1)c1cscn1` (stereo partly drawn) [Example 34.19, (2S)-3-Phenyl-N-(3-(pyridin-4-yl)phenyl)-2-(1-(thiazol-4-yl)ethylamino)propanamide], the EC50 is 100 to 1000 nM.

As for `Cn1nc(-c2ccncc2)cc1NC(=O)[C@H](Cc1ccccc1)NCc1ccccn1` [Example 17.3, (S)—N-(1-Methyl-3-(pyridin-4-yl)-1H-pyrazol-5-yl)-3-phenyl-2-(pyridin-2-ylmethylamino)propanamide], the EC50 is 50 to 100 nM.

As for `Cc1cc(-c2ccc(OCCN(C)C)c(NC(=O)[C@H](Cc3ccccc3)NCc3cscn3)c2)ccn1` [Example 75, (2S)—N-(2-(2-(Dimethylamino)ethoxy)-5-(2-methylpyridin-4-yl)phenyl)-3-phenyl-2-(thiazol-4-ylmethylamino)propanamide trifluoroacetate], the EC50 was 100 to 1000 nM.

Turning to `Cc1cc(-c2cc(NC(=O)[C@H](Cc3ccc(F)cc3)NCC(=O)O)[nH]n2)ccn1` [Example 21.2, 2-((S)-3-(4-Fluorophenyl)-1-(3-(2-methylpyridin-4-yl)-1H-pyrazol-5-ylamino)-1-oxopropan-2-ylamino)acetic acid dihydrochloride], the EC50 is < 50 nM.

On to `O=C(Nc1nccc(-c2ccncc2)n1)[C@H](Cc1ccccc1)NCc1cscn1` [Example 10, (S)-3-phenyl-N-(4-(pyridin-4-yl)pyrimidin-2-yl)-2-(thiazol-4-ylmethylamino)propanamide], for which the EC50 was 100 to 1000 nM.

For `COc1ncc(-c2ccnc(C)c2)cc1NC(=O)[C@H](Cc1ccccc1)NCc1cscn1` [Example 41.5, (2S)—N-(2-Methoxy-5-(2-methylpyridin-4-yl)pyridin-3-yl)-3-phenyl-2-(thiazol-4-ylmethylamino)propanamide TFA salt], the EC50 was 100 to 1000 nM.

Take `O=C(Nc1cncc(-c2ccn[nH]2)c1)[C@H](Cc1ccccc1)NCc1cscn1` [Example 6, (2S)—N-(5-(1H-Pyrazol-5-yl)pyridin-3-yl)-3-phenyl-2-(thiazol-4-ylmethylamino)propanamide]: the EC50 was 100 to 1000 nM.
